Assay results: US3954767A, “Piperazine salts of 2,5-dihydroxy benzene sulfonic acid mono- and diesters” (priority 1972, dated 1976)
Counter-ions that a name gives are not always drawn.

Tested on: rats treated with Triton WR-1339
Test: Hypolipemic action on the rat, Triton WR-1339 method
Assay type: in vivo
Conditions: Table VI; with respect to Triton WR-1339; 2 mMoles/Kg orally
Description: The above-mentioned Triton WR-1339 method was selected. The total cholesterol, triglycerides and total lipids were determined in the serum. The amount of Triton WR-1339 administered to the animals was 300 mg/kg. The amount of piperazine 2,5-dihydroxy benzene sulfonate mono-tosylate administered was 2 mMoles/Kg orally. The letter P signifies probability.
The above-mentioned Triton WR-1339 method was selected. The total cholesterol, triglycerides and total lipids were determined in the serum. The results obtained are given in Table V. The amount of Triton WR-1339 administered to the animals was 300 mg/Kg. The amount of the piperazine salt with one mole of the di-0-(p-chloro phenoxy isobutyrate) of 2,5-dihydroxy benzene sulfonic acid administered was 1 mMol/Kg orally. The letter P signifies probability.
In this Triton WR-1339 method, all the compounds are administered at a dose of 2 mMoles/Kg orally excepted those compounds in which is the residue of p-chlorophenoxy isobutyric acid, which are administered orally at a dose corresponding to 2 mMoles of R per Kg, i.e. the amount used is calculated on the basis of the residue R only.

SMILES | Percentage reduction of lipids: Cholesterol | Percentage reduction of lipids: Total Lipids | Percentage reduction of lipids: Triglycerides
O=C(Oc1ccc(OC(=O)c2ccccc2)c(S(=O)(=O)O)c1)c1ccccc1 [diethylamine 2,5-dihydroxybenzenesulfonate dibenzoate] [diethylamine 2.5-dihydroxybenzensulphonate dibenzoate] | 12% | 22% | 14%
O=C(Oc1ccc(OC(=O)c2ccccc2)c(S(=O)(=O)O)c1)c1ccccc1 [morpholine 2,5-dihydroxybenzenesulfonate dibenzoate] [morpholine 2.5-dihydroxybenzenesulphonate dibenzoate] | 12% | 21% | 17%
O=C(Oc1ccc(OC(=O)c2ccccc2)c(S(=O)(=O)O)c1)c1ccccc1 [piperazine 2,5-dihydroxybenzenesulfonate dibenzoate] [piperazine 2.5-dihydroxybenzenesulphonatedibenzoate] | 13% | 20% | 18%
O=C(Oc1ccc(OC(=O)c2ccccc2)c(S(=O)(=O)O)c1)c1ccccc1 [piperazine bis(2,5-dihydroxybenzene sulfonate dibenzoate)] [piperazine bis(2.5-dihydroxybenzenesulphonate dibenzoate)] | 9% | 16% | 14%
Cc1ccc(S(=O)(=O)Oc2ccc(O)c(S(=O)(=O)O)c2)cc1 [piperazine bis(2,5-dihydroxybenzenesulfonate monotosylate)] [piperazine bis(2.5-dihydroxybenzenesulphonate monotosylate)] | 11% | 17% | 25%
O=C(Oc1ccc(OC(=O)c2ccccc2)c(S(=O)(=O)O)c1)c1ccccc1 [piperidine 2,5-dihydroxybenzenesulfonate dibenzoate] [piperidine 2.5-dihydroxybenzenesulphonate dibenzoate] | 14% | 23% | 19%
Cc1ccc(S(=O)(=O)Oc2ccc(O)c(S(=O)(=O)O)c2)cc1 [piperidine bis(2,5-dihydroxybenzenesulfonate monotosylate)] [piperidine 2.5-dihydroxybenzenesulphonate monotosylate] | 15% | 33% | 26%
O=C(Oc1ccc(O)c(S(=O)(=O)O)c1)c1cccnc1 [pyridine 2,5-dihydroxybenzene sulfonate mono nicotinate] | 17% | 25% | 24%

Same assay, conditions: Table VI; with respect to Triton WR-1339; orally, 2 mMoles of R (p-chlorophenoxy isobutyric acid residue) per Kg

SMILES | Percentage reduction of lipids: Cholesterol | Percentage reduction of lipids: Total Lipids | Percentage reduction of lipids: Triglycerides
CC(C)(Oc1ccc(Cl)cc1)C(=O)Oc1ccc(OC(=O)C(C)(C)Oc2ccc(Cl)cc2)c(S(=O)(=O)O)c1 [calcium salt of di-O-(p-chloro phenoxy isobutyrate) of 2,5-d] [calcium salt of di-O-(p-chlorophenoxy isobutyrate) of 2,5-dihydroxy benzene sulfonic acid] | 27% | 29% | 33%
CC(C)(Oc1ccc(Cl)cc1)C(=O)Oc1ccc(O)c(S(=O)(=O)O)c1 [calcium salt of mono-O-(p-chloro phenoxy isobutyrate) of 2,5] [calcium salt of mono-O-(p-chlorophenoxy isobutyrate) of 2,5-dihydroxybenzene sulfonic acid] | 27% | 26% | 40%
CC(C)(Oc1ccc(Cl)cc1)C(=O)Oc1ccc(O)c(S(=O)(=O)O)c1 [di-salt of piperazine of mono-O-(p-chloro phenoxy isobutyrat] [di-salt of piperazine of mono-O-(p-chlorophenoxy isobutyrate) of 2,5-dihydroxy benzene sulfonic acid] | 16% | 26% | 31%
CC(C)(Oc1ccc(Cl)cc1)C(=O)Oc1ccc(O)c(S(=O)(=O)O)c1 [magnesium salt of mono-O-(p-chloro phenoxy isobutyrate) of 2] [magnesium salt of mono-O-(p-chlorophenoxy isobutyrate) of 2,5-dihydroxy benzene sulfonic acid] | 19% | 28% | 44%
CC(C)(Oc1ccc(Cl)cc1)C(=O)Oc1ccc(O)c(S(=O)(=O)O)c1 [mono-salt of piperazine of mono-O-(p-chloro phenoxy isobutyr] [mono-salt of piperazine of mono-O-(p-chlorophenoxy isobutyrate) of 2,5-dihydroxy benzene sulfonic acid] | 9% | 25% | 49%
CC(C)(Oc1ccc(Cl)cc1)C(=O)Oc1ccc(OC(=O)C(C)(C)Oc2ccc(Cl)cc2)c(S(=O)(=O)O)c1 [piperazine di-salt of di-O-(p-chloro phenoxy isobutyrate) of] [piperazine di-salt of di-O-(p-chlorophenoxy isobutyrate) of 2,5-dihydroxy benzene sulfonic acid] | 29% | 37% | 21%
CC(C)(Oc1ccc(Cl)cc1)C(=O)Oc1ccc(OC(=O)C(C)(C)Oc2ccc(Cl)cc2)c(S(=O)(=O)O)c1 [piperazine mono-salt of di-O-(p-chloro phenoxy isobutyrate) ] [piperazine mono-salt of di-O-(p-chlorophenoxy isobutyrate) of 2,5-dihydroxy benzene sulfonic acid] | 25% | 28% | 49%
CC(C)(Oc1ccc(Cl)cc1)C(=O)Oc1ccc(O)c(S(=O)(=O)O)c1 [pyridine 2,5-dihydroxybenzenesulfonate mono-p-chloro phenoxy] [mono-p-chloro phenoxy isobutyrate of pyridine 2,5-dihydroxy benzene sulfonate] | 16% | 23% | 27%

Same assay, conditions: Table VI; with respect to Triton WR-1339; orally, 2 mMoles of R (p-chlorophenoxy isobutyric acid residue) per Kg; dihydrate

SMILES | Percentage reduction of lipids: Cholesterol | Percentage reduction of lipids: Total Lipids | Percentage reduction of lipids: Triglycerides
CC(C)(Oc1ccc(Cl)cc1)C(=O)Oc1ccc(O)cc1S(=O)(=O)O [magnesium 2-O-(p-chlorophenoxyisobutyryl) 2,5-dihydroxybenzene sulfonate dihydrate] | 18% | 27% | 21%

Same assay, conditions: Triton 300 mg/Kg + compound 1 mMol/Kg orally; 0,0025<P<0,005

SMILES | total cholesterol
CC(C)(Oc1ccc(Cl)cc1)C(=O)Oc1ccc(OC(=O)C(C)(C)Oc2ccc(Cl)cc2)c(S(=O)(=O)O)c1 [piperazine mono-salt of di-O-(p-chloro phenoxy isobutyrate) ] [piperazine mono-salt of di-O-(p-chlorophenoxy isobutyrate) of 2,5-dihydroxy benzene sulfonic acid] | 212,5 mg % ml of plasma

Same assay, conditions: Triton 300 mg/Kg + compound 1 mMol/Kg orally; 0,005<P<0,010

SMILES | total lipids | triglycerides
CC(C)(Oc1ccc(Cl)cc1)C(=O)Oc1ccc(OC(=O)C(C)(C)Oc2ccc(Cl)cc2)c(S(=O)(=O)O)c1 [piperazine mono-salt of di-O-(p-chloro phenoxy isobutyrate) ] [piperazine mono-salt of di-O-(p-chlorophenoxy isobutyrate) of 2,5-dihydroxy benzene sulfonic acid] | 1503,8 mg % ml of plasma | 572,5 mg % ml of plasma
